Assay results: patent publication US9290478B2, “Substituted quinoxalines as FGFR kinase inhibitors” (ASTEX THERAPEUTICS LTD, priority 2010, dated 2016)
Several values for one entry are separate records, joined by “and”; a condition that tells them apart may be missing. Identical values can stand only once. Counter-ions that a name gives are not always drawn.

SMILES | melting point
COc1cc(OC)cc(C(CCNC(C)C)c2ccc3ncc(-c4cnn(C)c4)nc3c2)c1 (single isomer, unassigned) (as salt: oxalic acid salt) [Compound 19a] | 163 °C and 162 °C
COc1cc(OC)cc(C(CCNC(C)C)c2ccc3ncc(-c4cnn(C)c4)nc3c2)c1 (single isomer, unassigned) (as salt: oxalic acid salt) [Compound 32a] | 172 °C
COc1cc(OC)cc(C(CC(C)=O)c2ccc3ncc(-c4cnn(C)c4)nc3c2)c1 (stereo not drawn) [Compound 16] | 154 °C
